From the supplement of paper PMC8967900

Tests used:
Assay in all cases: selective drug sensitivity score (sDSS, relative to normal bone marrow) (sDSS (score)); higher = more potent and effective on the cell line relative to normal bone marrow cells
Conditions in all cases: 72 h
LC4-1 = tested on: LC4-1
P30-OHKUBO = tested on: P30-OHKUBO
ALL-PO = tested on: ALL-PO
HAL-01 = tested on: HAL-01
KARPAS-45 = tested on: KARPAS-45
MHH-CALL-3 = tested on: MHH-CALL-3
MOLT-4 = tested on: MOLT-4
KOPN-8 = tested on: KOPN-8
COG-LL-317 = tested on: COG-LL-317
COG-LL-394h = tested on: COG-LL-394h
KASUMI-10 = tested on: KASUMI-10
SUP-B15 = tested on: SUP-B15
NALL-1 = tested on: NALL-1
HPB-ALL = tested on: HPB-ALL
MHH-CALL-4 = tested on: MHH-CALL-4
COG-LL-332h = tested on: COG-LL-332h
MOLT-14 = tested on: MOLT-14
MOLT-16 = tested on: MOLT-16
TMD5 = tested on: TMD5
NALM-6 = tested on: NALM-6
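Further: ALL cell lines in 384-well plates, five doses spanning 10,000-fold, each plate scaled between vehicle and 100 µmol/L benzalkonium chloride controls, sDSS an adapted area-under-curve metric.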

Row | Compound | selective drug sensitivity score (LC4-1) | selective drug sensitivity score (P30-OHKUBO) | selective drug sensitivity score (ALL-PO) | selective drug sensitivity score (HAL-01) | selective drug sensitivity score (KARPAS-45) | selective drug sensitivity score (MHH-CALL-3) | selective drug sensitivity score (MOLT-4) | selective drug sensitivity score (KOPN-8) | selective drug sensitivity score (COG-LL-317) | selective drug sensitivity score (COG-LL-394h) | selective drug sensitivity score (KASUMI-10) | selective drug sensitivity score (SUP-B15) | selective drug sensitivity score (NALL-1) | selective drug sensitivity score (HPB-ALL) | selective drug sensitivity score (MHH-CALL-4) | selective drug sensitivity score (COG-LL-332h) | selective drug sensitivity score (MOLT-14) | selective drug sensitivity score (MOLT-16) | selective drug sensitivity score (TMD5) | selective drug sensitivity score (NALM-6)
1 | CC(O)(CS(=O)(=O)c1ccc(F)cc1)C(=O)Nc1ccc(C#N)c(C(F)(F)F)c1 (stereo not given) [Bicalutamide] (top concentration 10000 nM) | -1.68 | -1.68 | 3.92 | -1.68 | -0.88 | -1.68 | 2.32 | 4.92 | 0.52 | -0.18 | -1.68 | 4.62 | -1.68 | -1.68 | -1.68 | 0.72 | 2.52 | 6.92 | -0.88 | 2.02
2 | COc1cc(Nc2c(C#N)cnc3cc(OCCCN4CCN(C)CC4)c(OC)cc23)c(Cl)cc1Cl [Bosutinib] (top concentration 10000 nM) | 0.96 | 3.56 | 0.36 | -0.54 | 2.46 | 8.06 | -0.64 | 4.56 | -2.64 | 1.16 | -1.14 | 16 | -0.94 | -2.64 | -3.14 | 6.56 | 1.86 | 0.16 | 9.06 | -1.24
3 | Cc1cc2c(F)c(Oc3ncnn4cc(OC[C@@H](C)O)c(C)c34)ccc2[nH]1 [Brivanib] (top concentration 1000 nM) | -0.04 | -0.04 | -0.04 | -0.04 | 0.06 | -0.04 | -0.04 | 0.16 | -0.04 | -0.04 | -0.04 | -0.04 | -0.04 | -0.04 | -0.04 | 0.16 | 0.26 | -0.04 | -0.04 | -0.04
4 | Cc1ccc(-c2cc(C(F)(F)F)nn2-c2ccc(S(N)(=O)=O)cc2)cc1 [Celecoxib] (top concentration 10000 nM) | 1.24 | -0.06 | 2.84 | 0.04 | 0.34 | 5.24 | 0.14 | 0.74 | -0.06 | -0.06 | -0.06 | 2.44 | -0.06 | -0.06 | -0.06 | 0.34 | -0.06 | 0.34 | 1.34 | -0.06
5 | N.N.[Cl][Pt][Cl] [Cisplatin] (top concentration 100000 nM) | 17.7 | 16.7 | 8.44 | 12 | 5.84 | 4.04 | 16.2 | 21.7 | 23.2 | 0.54 | 12 | 17.4 | 6.84 | 7.14 | 10.7 | 19.4 | 18.6 | 17.7 | 1.24 | 0.64
6 | Cc1c2oc3c(C)ccc(C(=O)N[C@@H]4C(=O)N[C@H](C(C)C)C(=O)N5CCC[C@H]5C(=O)N(C)CC(=O)N(C)[C@@H](C(C)C)C(=O)O[C@@H]4C)c3nc-2c(C(=O)N[C@@H]2C(=O)N[C@H](C(C)C)C(=O)N3CCC[C@H]3C(=O)N(C)CC(=O)N(C)[C@@H](C(C)C)C(=O)O[C@@H]2C)c(N)c1=O [Dactinomycin] (top concentration 1000 nM) | 17.5 | 19.1 | 8.24 | 1.04 | 8.44 | 15.7 | 17.3 | 17.8 | 20.7 | 12.2 | 17.6 | 20.7 | 1.44 | 6.14 | 11.6 | 14.5 | 16.9 | 18.8 | 7.84 | 12.5
7 | O=C(O)CCCCC(CCSCc1ccccc1)SCc1ccccc1 (stereo not given) [Devimistat (CPI-613)] (top concentration 10000 nM) | 2.1 | 0 | 0 | 0 | 0 | 1 | 0 | 0 | 0 | 0 | 0 | 0 | 0.1 | 0 | 0 | 0 | 0 | 0 | 0 | 0
8 | CC(=O)O[C@@]12CO[C@@H]1C[C@H](O)[C@@]1(C)C(=O)[C@H](O)C3=C(C)[C@@H](OC(=O)[C@H](O)[C@@H](NC(=O)OC(C)(C)C)c4ccccc4)C[C@@](O)([C@@H](OC(=O)c4ccccc4)[C@H]21)C3(C)C [Docetaxel] (top concentration 1000 nM) | 22.9 | 20.4 | 15.5 | 4.9 | 17.1 | 7.3 | 14.8 | 23.7 | 20.6 | 8.5 | 14.6 | 21.7 | 15.9 | 12.5 | 8.2 | 22.2 | 19.5 | 23.5 | 8.5 | 14.1
9 | Cc1ccc(-n2nc(C(C)(C)C)cc2NC(=O)Nc2ccc(OCCN3CCOCC3)c3ccccc23)cc1 [Doramapimod] (top concentration 10000 nM) | 1.76 | 4.26 | 4.16 | -0.24 | -0.24 | -0.24 | 2.46 | 3.76 | 10.9 | 2.16 | 1.16 | 5.16 | -0.24 | 2.76 | -0.24 | 4.36 | -0.24 | 4.16 | -0.14 | -0.24
10 | Cc1ccc(NS(=O)(=O)c2cccc(C#N)c2)c2[nH]cc(C#N)c12 [E7820] (top concentration 50000 nM) | 11.8 | 17.3 | 4.92 | 12.3 | 20.1 | 7.82 | 1.82 | 19.8 | 21.9 | -1.58 | 4.62 | 8.72 | 6.42 | 11 | 7.62 | 22.1 | 21.3 | 22.6 | 7.32 | 19.2
11 | C[C@@H]1CN(C(=O)c2ccc(NC(=O)c3cc(O[C@H](C)c4c(Cl)ccc(F)c4Cl)c(N)nn3)cc2)C[C@H](C)N1 [Ensartinib] (top concentration 1000 nM) | -1.44 | 2.06 | 0.26 | -2.84 | 2.36 | -2.84 | -0.54 | 1.16 | -2.34 | 0.86 | -2.84 | 3.86 | -2.84 | -2.84 | -2.84 | 2.76 | -1.74 | -0.74 | -1.84 | -0.44
12 | c1cn2cc(-c3ccc4cn[nH]c4c3)nc(Nc3ccc(N4CCOCC4)cc3)c2n1 [Entospletinib] (top concentration 5000 nM) | -0.64 | 6.96 | 7.26 | -0.64 | -0.64 | -0.64 | -0.64 | 1.46 | -0.64 | -0.64 | -0.64 | 1.36 | -0.64 | -0.64 | -0.64 | -0.64 | -0.64 | -0.64 | -0.64 | 1.26
13 | COc1cc([C@@H]2c3cc4c(cc3[C@@H](O[C@@H]3O[C@@H]5CO[C@@H](C)O[C@H]5[C@H](O)[C@H]3O)[C@H]3COC(=O)[C@H]23)OCO4)cc(OC)c1O [Etoposide] (top concentration 10000 nM) | 14.8 | 16.3 | 5.44 | 5.14 | 7.24 | 19.7 | 23.5 | 24.9 | 29.8 | 7.04 | 13 | 26.8 | 14.9 | 7.74 | 10.2 | 22.7 | 21.5 | 28.9 | 5.24 | 14.1
14 | CCCCCCCCc1ccc(CCC(N)(CO)CO)cc1 [Fingolimod] (top concentration 10000 nM) | 0.88 | 1.38 | 2.28 | 1.88 | -0.02 | -3.42 | 1.78 | 3.18 | 1.08 | 1.68 | -0.72 | 7.48 | 6.18 | 1.68 | 1.58 | 1.38 | 2.08 | 5.38 | 0.48 | 1.58
15 | O=C(NOCCO)c1ccc2cncn2c1Nc1ccc(I)cc1F [GDC-0623] (top concentration 2500 nM) | -2.3 | -2.4 | -3.3 | 3.1 | -3.1 | 1.7 | -3.3 | -1.2 | -0.8 | -3.4 | -3.4 | -3 | -0.5 | 3.6 | -2.1 | -1.8 | -1.6 | -1.6 | -0.7 | 3.8
16 | C[C@H]1CN(C2COC2)CCN1c1ccc(Nc2cc(-c3ccnc(N4CCn5c(cc6c5CC(C)(C)C6)C4=O)c3CO)cn(C)c2=O)nc1 [GDC-0853] (top concentration 1000 nM) | 0 | 0 | 0 | 0 | 0 | 0 | 0 | 0 | 0 | 0 | 0 | 0 | 0 | 0.4 | 0.2 | 0 | 0 | 0 | 0 | 0
17 | CCNc1nc(Nc2cc(F)c(C(=O)N3CCOCC3)cc2OC)ncc1C(F)(F)F [GNE-7915] (top concentration 1000 nM) | -0.06 | -0.06 | -0.06 | 1.04 | -0.06 | -0.06 | -0.06 | -0.06 | 0.34 | -0.06 | -0.06 | -0.06 | -0.06 | -0.06 | -0.06 | -0.06 | -0.06 | -0.06 | 5.44 | -0.06
